Data reported in US8895610B1, “Platinum (IV) compounds targeting zinc finger domains” (priority 2007, dated 2014).
“And” between values parts separate entries of the source, which are not always exact repeats. Equal values may be shown once.

Key:
FIV Petaluma = experiment: p25 antigen evaluation of antiviral activity in MBM cells; format: cell-based, feline; conditions: for p25 Viral Antigen (OD), average / p25 Viral Antigen (OD), individual wells: 7 days post infection, K+ = 1.195, K− = 0.08
Experimental: Antiviral activity in MBM was determined by inoculating 200 Tissue Culture Infectious Doses 50% FIV Petaluma (Talbott, 1989) in 100 μL RPMI 1640 medium into quadruplicate wells of 96-well microplates containing 2×10^5 cells in 100 μL medium. The cultures were monitored by measuring FIV p25 capsid protein (Lombardi, 1994) release in the supernatants after 7 days of incubation at 37° C. in 5% CO2 (Table 12). Half the media (without drug) was replaced on days 2 and 6 after infection and initial drug exposure. […] Drugs are identified as: CPA-7 (#1); NAD (#2); cisplatin (#3) and FX101 (#4). […]. […] A minimum of 50% inhibition in vitro is required to offset viral infectivity and replication in vivo.

STAT3 = STAT3 (Homo sapiens, UniProt P40763); conditions: have been shown; cited from earlier work
STAT3, sequence (P40763 whole entry, species assumed): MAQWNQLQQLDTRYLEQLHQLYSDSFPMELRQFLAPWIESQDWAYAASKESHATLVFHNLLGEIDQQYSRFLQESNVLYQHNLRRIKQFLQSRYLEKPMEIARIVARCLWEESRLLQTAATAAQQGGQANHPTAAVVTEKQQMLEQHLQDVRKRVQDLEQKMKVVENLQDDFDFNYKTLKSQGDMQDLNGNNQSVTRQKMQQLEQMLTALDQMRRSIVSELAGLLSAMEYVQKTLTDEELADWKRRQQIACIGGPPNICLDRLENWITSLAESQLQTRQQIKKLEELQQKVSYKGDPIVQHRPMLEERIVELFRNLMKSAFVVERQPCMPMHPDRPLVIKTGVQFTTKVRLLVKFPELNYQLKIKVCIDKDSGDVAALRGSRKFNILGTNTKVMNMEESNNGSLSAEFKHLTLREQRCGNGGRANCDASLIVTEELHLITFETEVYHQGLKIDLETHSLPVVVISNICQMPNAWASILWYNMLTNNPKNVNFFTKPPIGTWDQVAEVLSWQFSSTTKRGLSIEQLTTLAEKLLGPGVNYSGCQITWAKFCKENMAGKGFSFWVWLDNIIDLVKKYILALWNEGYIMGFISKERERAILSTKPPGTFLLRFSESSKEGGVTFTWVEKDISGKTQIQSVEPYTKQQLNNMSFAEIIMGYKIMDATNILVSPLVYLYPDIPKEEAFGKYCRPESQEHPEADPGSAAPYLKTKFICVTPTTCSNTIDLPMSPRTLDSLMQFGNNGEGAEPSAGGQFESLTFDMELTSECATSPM

Row | Structure (SMILES) | inhibition (elimination of all measures of virus) by day 7 (FIV Petaluma; 7 days, concentrations used 5 and 20 μM) [%] | p25 Viral Antigen (OD), average (FIV Petaluma; conc 5 μM) [OD] | p25 Viral Antigen (OD), individual wells (FIV Petaluma; conc 5 μM) | p25 Viral Antigen (OD), average (FIV Petaluma; conc 20 μM) [OD] | p25 Viral Antigen (OD), individual wells (FIV Petaluma; conc 20 μM) | antiviral effectiveness (in words) (FIV Petaluma; p25 release, MBM cells, 7 days) | inhibition of STAT3 (STAT3)
1 | [NH2][Pt]([NH2])([Cl])([Cl])([Cl])[N+](=O)[O-] [Drug #1] | < 30 | 1.0943 | 1.093 OD and 1.122 OD and 1.068 OD | 0.8163 | 0.788 OD and 0.825 OD and 0.836 OD | insignificantly effective | inhibit STAT3
2 | N.N.[Cl][Pt][Cl] [Drug #3, cisplatin] |  | 1.0157 | 1.04 OD and 1.021 OD and 0.986 OD | 1.0133 | 1.014 OD and 1.033 OD and 0.993 OD |  | 
